The nature of this assay: Compound was evaluated for the inhibition of L-pipecolate oxidase(LPO) isolated from frozen Rhesus monkey liver.

As usually defined, the IC50 is the midpoint of a concentration-inhibition curve.

Regarding `O=C(O)[C@H]1NC[C@@H]2O[C@@H]21` [(1R,2S,5S)-6-Oxa-3-aza-bicyclo[3.1.0]hexane-2-carboxylic acid], the IC50 stood at 200 µM.

Values taken from BindingDB's records for doi:10.1016/s0960-894x(98)00106-1 (Oregon State University, 1999).
